Measured values reported in patent US8247211B2, “Glycopeptide antibiotics” (American Cyanamid Company, priority 2001, dated 2012).
Values after ≈ are worked out from the molar mass of the structure shown.

Key:
Assay in all cases: In vitro antibacterial evaluation: minimum inhibitory concentration (MIC), broth dilution method
Type in all cases: cell-based
Escherichia coli = conditions: 18 hours at 35° C.
Outline: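 Using Muller-Hinton II […] and an inoculum of 5×10^5 CFU/mL, antibiotic dilutions from 64 down to 0.06 μg/mL were tested following NCCLS M7-A2. The MIC is the lowest concentration inhibiting growth, including in methicillin-, penicillin- or vancomycin-resistant clinical isolates.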

Staphylococcus sp. = test system: Staphylococcus sp.
Outline: (§1)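 MIC read as lowest drug level preventing visible growth. Organisms at 5×10^5 CFU/mL were exposed to a 64-0.06 μg/mL dilution series in Muller-Hinton II […] following NCCLS broth dilution standard M7-A2.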

Enterococcus sp. = conditions: 18 hours at 35° C.
Outline: as §1

Streptococcus sp. = conditions: 18 hours at 35° C.
Outline: as §1

[1] = broth dilution, inoculum 5×10^5 CFU/mL

With CC(c1ccccc1)C1NC(=O)CNC(=O)C(CO)NC(=O)C(CC2CNC(=N)N2C2OC(CO)C(O)C(O)C2O)NC(=O)C(CC2CNC(=N)N2)NC(=O)C(Cc2ccc(OC3OC(CO)C(OC4OC5COC(c6ccc(OCc7ccccc7)cc6)OC5C(O)C4O)C(O)C3O)cc2)NC1=O (stereo not shown) [Example 191] the “MIC Escherichia coli (ATCC 25922)” value (Escherichia coli; Escherichia coli (ATCC 25922)) was 64 µg/mL (≈ 43.9 µM), the “MIC Escherichia coli (GC 4559)” value (Escherichia coli; Escherichia coli (GC 4559)) was 64 µg/mL (≈ 43.9 µM) and the “MIC Escherichia coli (GC 4560)” value (Escherichia coli; Escherichia coli (GC 4560)) was 8 µg/mL (≈ 5.49 µM). For the same compound, the “MIC Staphylococcus aureus (ATCC 29213)” value (Staphylococcus sp.; strain ATCC 29213) was 4 µg/mL (≈ 2.74 µM), the “MIC Staphylococcus aureus (GC 1131)” value (Staphylococcus sp.; strain GC 1131) was 8 µg/mL (≈ 5.49 µM) and the “MIC Staphylococcus aureus (GC 3051)” value (Staphylococcus sp.; strain GC 3051) was 8 µg/mL (≈ 5.49 µM). The “MIC Staphylococcus aureus (GC 3053)” value (Staphylococcus sp.; strain GC 3053) was 8 µg/mL (≈ 5.49 µM), the “MIC Staphylococcus aureus (GC 4541)” value (Staphylococcus sp.; strain GC 4541) was 4 µg/mL (≈ 2.74 µM) and the “MIC Staphylococcus aureus (GC 4542)” value (Staphylococcus sp.; strain GC 4542) was 4 µg/mL (≈ 2.74 µM). The “MIC Staphylococcus aureus-SMITH (GC 4543)” value (Staphylococcus sp.; strain GC 4543) was 4 µg/mL (≈ 2.74 µM), the “MIC Staphylococcus aureus (GC 4544)” value (Staphylococcus sp.; strain GC 4544) was 8 µg/mL (≈ 5.49 µM) and the “MIC Staphylococcus aureus (GC 4545)” value (Staphylococcus sp.; strain GC 4545) was 4 µg/mL (≈ 2.74 µM). For the same compound, the “MIC Staphylococcus haemolyticus (GC 4546)” value (Staphylococcus sp.; strain GC 4546) was 4 µg/mL (≈ 2.74 µM), the “MIC Coagulase Negative Staphylococcus (GC 4547)” value (Staphylococcus sp.; strain GC 4547) was 8 µg/mL (≈ 5.49 µM) and the “MIC Coagulase Negative Staphylococcus (GC 4548)” value (Staphylococcus sp.; strain GC 4548) was 4 µg/mL (≈ 2.74 µM). For the same compound, the “MIC Coagulase Negative Staphylococcus (GC 4549)” value (Staphylococcus sp.; strain GC 4549) was 4 µg/mL (≈ 2.74 µM), the “MIC Coagulase Negative Staphylococcus (GC 4551)” value (Staphylococcus sp.; strain GC 4551) was 4 µg/mL (≈ 2.74 µM) and the “MIC Coagulase Negative Staphylococcus (GC 6257)” value (Staphylococcus sp.; strain GC 6257) was 4 µg/mL (≈ 2.74 µM). For the same compound, the “MIC Enterococcus avium (GC 4558)” value (Enterococcus sp.; Enterococcus avium (GC 4558)) was 4 µg/mL (≈ 2.74 µM), the “MIC Enterococcus faecalis (ATCC 29212)” value (Enterococcus sp.; Enterococcus faecalis (ATCC 29212)) was 16 µg/mL (≈ 11 µM) and the “MIC Enterococcus faecalis (GC 2242)” value (Enterococcus sp.; Enterococcus faecalis (GC 2242)) was 8 µg/mL (≈ 5.49 µM). The “MIC Enterococcus faecalis (GC 2691)” value (Enterococcus sp.; Enterococcus faecalis (GC 2691)) was 8 µg/mL (≈ 5.49 µM), the “MIC Enterococcus faecalis (GC 3059)” value (Enterococcus sp.; Enterococcus faecalis (GC 3059)) was 8 µg/mL (≈ 5.49 µM) and the “MIC Enterococcus faecalis (GC 4552)” value (Enterococcus sp.; Enterococcus faecalis (GC 4552)) was 16 µg/mL (≈ 11 µM). The “MIC Enterococcus faecalis (GC 4553)” value (Enterococcus sp.; Enterococcus faecalis (GC 4553)) was 8 µg/mL (≈ 5.49 µM), the “MIC Enterococcus faecalis (GC 4554)” value (Enterococcus sp.; Enterococcus faecalis (GC 4554)) was 16 µg/mL (≈ 11 µM) and the “MIC Enterococcus faecalis (GC 6189)” value (Enterococcus sp.; Enterococcus faecalis (GC 6189)) was 8 µg/mL (≈ 5.49 µM). For the same compound, the “MIC Enterococcus faecium (GC 2243)” value (Enterococcus sp.; Enterococcus faecium (GC 2243)) was 8 µg/mL (≈ 5.49 µM), the “MIC Enterococcus faecium (GC 4556)” value (Enterococcus sp.; Enterococcus faecium (GC 4556)) was 8 µg/mL (≈ 5.49 µM) and the “MIC Enterococcus faecium (GC 4557)” value (Enterococcus sp.; Enterococcus faecium (GC 4557)) was 4 µg/mL (≈ 2.74 µM). The “MIC Enterococcus avium (GC 4558)” value (Enterococcus sp.; [1]) was 4 µg/mL (≈ 2.74 µM), the “MIC Enterococcus faecalis (ATCC 29212)” value (Enterococcus sp.; [1]) was 16 µg/mL (≈ 11 µM) and the “MIC Enterococcus faecalis (GC 2242)” value (Enterococcus sp.; [1]) was 8 µg/mL (≈ 5.49 µM). The “MIC Enterococcus faecalis (GC 2691)” value (Enterococcus sp.; [1]) was 8 µg/mL (≈ 5.49 µM), the “MIC Enterococcus faecalis (GC 3059)” value (Enterococcus sp.; [1]) was 8 µg/mL (≈ 5.49 µM) and the “MIC Enterococcus faecalis (GC 4552)” value (Enterococcus sp.; [1]) was 16 µg/mL (≈ 11 µM). For the same compound, the “MIC Enterococcus faecalis (GC 4553)” value (Enterococcus sp.; [1]) was 8 µg/mL (≈ 5.49 µM), the “MIC Enterococcus faecalis (GC 4554)” value (Enterococcus sp.; [1]) was 16 µg/mL (≈ 11 µM) and the “MIC Enterococcus faecalis (GC 6189)” value (Enterococcus sp.; [1]) was 8 µg/mL (≈ 5.49 µM). For the same compound, the “MIC Enterococcus faecium (GC 2243)” value (Enterococcus sp.; [1]) was 8 µg/mL (≈ 5.49 µM), the “MIC Enterococcus faecium (GC 4556)” value (Enterococcus sp.; [1]) was 8 µg/mL (≈ 5.49 µM) and the “MIC Enterococcus faecium (GC 4557)” value (Enterococcus sp.; [1]) was 4 µg/mL (≈ 2.74 µM). The “MIC Streptococcus agalactiae (GC 4564)” value (Streptococcus sp.; Streptococcus agalactiae (GC 4564)) was 2 µg/mL (≈ 1.37 µM), the “MIC Streptococcus pneumoniae (ATCC 6301)” value (Streptococcus sp.; Streptococcus pneumoniae (ATCC 6301)) was 1 µg/mL (≈ 0.686 µM) and the “MIC Streptococcus pneumoniae (GC 1894)” value (Streptococcus sp.; Streptococcus pneumoniae (GC 1894)) was 0.25 µg/mL (≈ 0.172 µM). For the same compound, the “MIC Streptococcus pneumoniae (GC 4565)” value (Streptococcus sp.; Streptococcus pneumoniae (GC 4565)) was 2 µg/mL (≈ 1.37 µM), the “MIC Streptococcus pyogenes (GC 4563)” value (Streptococcus sp.; Streptococcus pyogenes (GC 4563)) was 2 µg/mL (≈ 1.37 µM) and the “MIC Streptococcus agalactiae (GC 4564)” value (Streptococcus sp.; [1]) was 2 µg/mL (≈ 1.37 µM). For the same compound, the “MIC Streptococcus pneumoniae (ATCC 6301)” value (Streptococcus sp.; [1]) was 1 µg/mL (≈ 0.686 µM), the “MIC Streptococcus pneumoniae (GC 1894)” value (Streptococcus sp.; [1]) was 0.25 µg/mL (≈ 0.172 µM) and the “MIC Streptococcus pneumoniae (GC 4565)” value (Streptococcus sp.; [1]) was 2 µg/mL (≈ 1.37 µM). The “MIC Streptococcus pyogenes (GC 4563)” value (Streptococcus sp.; [1]) was 2 µg/mL (≈ 1.37 µM).
